The values below come from PMC9400670, “Establishing the selective phospholipid membrane coordination, permeation and lysis properties for a series of ‘druggable’ supramolecular self-associating antimicrobial amphiphiles” (Chemical Science, 2022).

Structures are written as SMILES. Some results are limits rather than exact numbers.

One test has as its system PG lipid vesicles. Kind of test: Synthetic phospholipid vesicle membrane binding assay (fluorescence polarisation), PG vesicles. To be noted: lipid vesicles added to SSA (0.15 mM); n = 3; error = standard error; SSA alone set to 100 mP. The procedure: For intrinsically fluorescent SSAs 5, 6 and 8–12, FP titration experiments enabled the observation of SSA: phospholipid vesicle interactions. Here, an increase in FP value indicates an increase in the apparent size of the SSA as it interacts with the phospholipid vesicle. […]
Fluorescence polarisation: Lipid films were resuspended in Buffer (150 mM KCl, 10 mM HEPES, pH 7.4, 2 mM EGTA) and subjected to 9 freeze-thaw cycles in liquid nitrogen and extruded 20 times through a 200 nm polycarbonate membrane. Black bottom 96-well plates were prepared by serially diluting desired vesicle solution across the plate, the appropriate SSA solution (100 µL, 0.15 mM) was added to each well to give a total well volume of 200 µL. Fluorescent SSA solutions were set to a FP value of 100 mP. Data were acquired in endpoint mode. […]
(In fluorescence polarisation assays a small probe gives low polarisation when free and higher when bound to something large.)
With `O=C(NCS(=O)(=O)O)Nc1ccccc1-c1nc2ccccc2s1` [SSA 5], the “increase in FP, PG” value was 43 ± 9 mP.

On to `Cc1ccc2nc(-c3ccc(NC(=O)NCS(=O)(=O)O)cc3)sc2c1` [SSA 6], for which the “increase in FP, PG” value was determined as 40 ± 4 mP.

Regarding `O=C(NCS(=O)(=O)O)Nc1ccc(-c2nc3ccccc3s2)cc1` [SSA 8], the “increase in FP, PG” value was determined as 29 ± 1 mP.

In the case of `Cc1ccc2nc(-c3ccc(NC(=O)NCCC(=O)O)cc3)sc2c1` [SSA 9], the “increase in FP, PG” value was determined as 47 ± 1 mP.

With `Cc1ccc2nc(-c3ccc(NC(=O)NCCCS(=O)(=O)O)cc3)sc2c1` [SSA 10], the “increase in FP, PG” value was 29 ± 2 mP.

As for `Cc1ccc2nc(-c3ccc(NC(=O)NCC(=O)O)cc3)sc2c1` [SSA 11], the “increase in FP, PG” value is given as 209 ± 4 mP.

`Cc1ccc2nc(-c3ccc(NC(=S)NCS(=O)(=O)O)cc3)sc2c1` [SSA 12]: the “increase in FP, PG” value is 126 ± 5 mP.

For a further test, the system named is PC nanodiscs. The test is described as follows: Phospholipid nanodisc 1H NMR CPMG coordination assay, PC nanodiscs. The test is classed as binding. The following applies: SSA 100 µM; experimental endpoint 4.00 µM nanodisc; read-out: EC50 PC, cationic SSA component. The source says: (§1) Finally, to establish how any single SSA structural variation affects the coordination of an individual salt component to the surface of a phospholipid membrane, the binding of the anionic and cationic components of SSAs 5–12 with nanodiscs comprised of PC, PG or the PE : PG mix (Table 2) was studied. Nanodiscs were synthesised from synthetic vesicles of the relevant phospholipid composition. For full synthetic procedures and nanodisc characterisation please see ESI (Section 13). ^†[34,35]
(§2) Styrene-maleic acid (SMA) nanodiscs are small biomimetic scaffolds with a hydrodynamic diameter ≈ 10 nm. They consist of a single disc-shaped planar phospholipid bilayer, ‘belted’ in this instance with a synthetic SMA co-polymer. Here nanodiscs of a specific phospholipid composition were titrated against a solution of SSAs 5–12 (0.10 mM) in a sodium phosphate buffer (20 mM) with NaCl (20 mM) at pH 7.4. This solution was supplemented with 5% D2O, to enable NMR locking and 4,4-dimethyl4-silapentane-1-sulfonic acid (DSS – 0.02 mM) to act as an internal standard. The nanodiscs were then titrated against the SSA, while the SSA concentration was maintained as constant, well below the CMC (Table 3).[38] A 1D ^1H NMR with a Carr–Purcell–Meiboom–Gill sequence (CPMG) filter (300 ms),[36,48] modified with a watergate element was then obtained for each experimental data point. The watergate element was used to allow suppression of the water signal, whereas the CPMG filter enabled the suppression of those resonances from molecular species with long correlation times, which in this instance correlate to the signals of those SSAs coordinated to the nanodisc, rather than those which exist as free species in solution. Comparative integration of the resonances corresponding to the SSA cation or anion, standardised against the DSS internal standard, permits the percentage of the individual SSA components coordinated to the phospholipid nanodisc to be established with respect to increasing nanodisc concentration.
(§3) However, when considering the 1/EC50 for the SSA cationic component (Fig. 10b), the reverse is true. This is perhaps expected, but nevertheless despite the identical experimental conditions, including the same TBA counter cation across SSAs 5–12, there is a marked difference in the 1/EC50 obtained, where the only difference is the SSA anion present. This is most noticeable for the series of SSA titrations involving the PE : PG mix (Table 2) nanodiscs. The only variation within this set of titrations is the structure of the SSA anion; we therefore conclude that the SSA anion is influencing SSA cation nanodisc coordination events. This observation provides evidence for the presence of further complex interactions informing SSA:nanodisc coordination processes. […]
(§4) Data were acquired in endpoint mode. All experiments were repeated in triplicate […]
(§5) Nanodisc preparation: Lipid films were resuspended in Buffer (20 mM NaCl, 20 mM NaH 2PO4, pH 7.4) and sonicated for 1 hour, at a 5:1 ratio, SMA was added and incubated at 37 °C for 1 hour. Dialysed overnight in 5 L of the same buffer in 10 KDa cut-off dialysis tubing, concentrated, and underwent gel filtration size exclusion chromatography on a Superdex 200 10/300 GL column (GE Healthcare) in the same buffer, whilst monitoring absorbance at 260 nm. Nanodisc quantification carried out via monitoring of absorbance at 260 nm using a calibration curve.2
(§6) 1H NMR CPMG: 1H NMR CPMG3,4 spectra were obtained with a Bruker Avance III […] spectrometer equipped with a TCIP cryoprobe at 298 K. Samples were supplemented with 5 % D 2O and 0.02 mM 4,4-dimethyl4-silapentane-1-sulfonic acid (DSS). The standard zgprcpmg pulse sequence from the Bruker library was modified with a watergate element to allow suppressi on of the water signal and was used for all experiments. Although this sequence is readily obtainable, we are happy to provide it on request. The P1 pulses were 9 µs at a power of 7.9 W. Presaturation was applied between […]
The term EC50 denotes the concentration that produces a half-maximal response. For `Cc1ccc2nc(-c3ccc(NC(=O)NCCC(=O)O)cc3)sc2c1` [SSA 9], the EC50 was more than 4000 nM.

As for `Cc1ccc2nc(-c3ccc(NC(=O)NCCCS(=O)(=O)O)cc3)sc2c1` [SSA 10], the EC50 is more than 4000 nM.

The test is the same for the next values; noted with them: concentration of nanodisc coordinating 50 % of the SSA anion; SSA 100 µM; Hill Plot fit, Vmax fixed 100 %; read-out: EC50 PC, anionic SSA component.
On to `Cc1ccc2nc(-c3ccc(NC(=O)NCS(=O)(=O)O)cc3)sc2c1` [SSA 6], for which the concentration giving a half-maximal response (EC50) came out at 360 nM.

For the molecule `O=C(NCS(=O)(=O)O)Nc1ccc(-c2nc3ccccc3s2)cc1` [SSA 8], the half-maximal effective concentration (EC50) turned out to be 2660 nM.

In the case of `Cc1ccc2nc(-c3ccc(NC(=O)NCCC(=O)O)cc3)sc2c1` [SSA 9], the EC50 was found to be 270 nM.

Regarding `Cc1ccc2nc(-c3ccc(NC(=O)NCCCS(=O)(=O)O)cc3)sc2c1` [SSA 10], the concentration for a half-maximal effect (EC50) stood at 360 nM.

Consider `Cc1ccc2nc(-c3ccc(NC(=O)NCC(=O)O)cc3)sc2c1` [SSA 11], for which the concentration giving a half-maximal response (EC50) stood at 490 nM.

In the case of `Cc1ccc2nc(-c3ccc(NC(=S)NCS(=O)(=O)O)cc3)sc2c1` [SSA 12], the EC50 amounted to 140 nM.

The same test, now with this note: concentration of nanodisc coordinating 50 % of the SSA cation; SSA 100 µM; Hill Plot fit, Vmax fixed 100 %; read-out: EC50 PC, cationic SSA component.
As for `Cc1ccc2nc(-c3ccc(NC(=S)NCS(=O)(=O)O)cc3)sc2c1` [SSA 12], the concentration giving a half-maximal response (EC50) came to 2240 nM.

A further test concerns PE:PG mix nanodiscs. Kind of test: Phospholipid nanodisc 1H NMR CPMG coordination assay, PE:PG mix nanodiscs. The test is classed as binding. The following applies: SSA 100 µM; experimental endpoint 4.00 µM nanodisc; read-out: EC50 PE:PG mix, cationic SSA component.
Description: as §1, §2, §3, §4, §5, §6
Regarding `Cc1ccc2nc(-c3ccc(NC(=O)NCS(=O)(=O)O)cc3)sc2c1` [SSA 6], the concentration giving a half-maximal response (EC50) was more than 4000 nM.

The same test, now with this note: concentration of nanodisc coordinating 50 % of the SSA anion; SSA 100 µM; Hill Plot fit, Vmax fixed 100 %; read-out: EC50 PE:PG mix, anionic SSA component.
Take `O=C(NCS(=O)(=O)O)Nc1ccccc1-c1nc2ccccc2s1` [SSA 5]: the EC50 was 1140 nM.

Turning to `Cc1ccc2nc(-c3ccc(NC(=O)NCS(=O)(=O)O)cc3)sc2c1` [SSA 6], the half-maximal effective concentration (EC50) was 460 nM.

Take `O=C(NCS(=O)(=O)O)Nc1ccc(-c2nc3ccccc3s2)cc1` [SSA 8]: the half-maximal effective concentration (EC50) is 2200 nM.

Regarding `Cc1ccc2nc(-c3ccc(NC(=O)NCCC(=O)O)cc3)sc2c1` [SSA 9], the half-maximal effective concentration (EC50) was found to be 730 nM.

Take `Cc1ccc2nc(-c3ccc(NC(=O)NCCCS(=O)(=O)O)cc3)sc2c1` [SSA 10]: the EC50 turned out to be 500 nM.

For the molecule `Cc1ccc2nc(-c3ccc(NC(=O)NCC(=O)O)cc3)sc2c1` [SSA 11], the EC50 was determined as 720 nM.

For the molecule `Cc1ccc2nc(-c3ccc(NC(=S)NCS(=O)(=O)O)cc3)sc2c1` [SSA 12], the EC50 came to 260 nM.

The same test, now with this note: concentration of nanodisc coordinating 50 % of the SSA cation; SSA 100 µM; Hill Plot fit, Vmax fixed 100 %; read-out: EC50 PE:PG mix, cationic SSA component.
Consider `O=C(NCS(=O)(=O)O)Nc1ccccc1-c1nc2ccccc2s1` [SSA 5], for which the EC50 stood at 930 nM.

With `Cc1ccc2nc(NC(=O)NCS(=O)(=O)O)sc2c1` [SSA 7], the half-maximal effective concentration (EC50) came out at 3440 nM.

On to `Cc1ccc2nc(-c3ccc(NC(=O)NCCCS(=O)(=O)O)cc3)sc2c1` [SSA 10], for which the concentration for a half-maximal effect (EC50) came out at 2920 nM.

With `Cc1ccc2nc(-c3ccc(NC(=O)NCC(=O)O)cc3)sc2c1` [SSA 11], the concentration for a half-maximal effect (EC50) came to 2510 nM.

As to `Cc1ccc2nc(-c3ccc(NC(=S)NCS(=O)(=O)O)cc3)sc2c1` [SSA 12], the EC50 is 370 nM.
